Reference: doi:10.1101/2021.04.29.441652v1 (biorxiv, 2021)

Target: human σ2 receptor (TMEM97) (Homo sapiens, UniProt Q5BJF2)
Experiment: biochemical
Type: Expi293 membranes
Settings: read-out: % of control remaining

Sequence of human σ2 receptor (TMEM97) (Q5BJF2 whole entry): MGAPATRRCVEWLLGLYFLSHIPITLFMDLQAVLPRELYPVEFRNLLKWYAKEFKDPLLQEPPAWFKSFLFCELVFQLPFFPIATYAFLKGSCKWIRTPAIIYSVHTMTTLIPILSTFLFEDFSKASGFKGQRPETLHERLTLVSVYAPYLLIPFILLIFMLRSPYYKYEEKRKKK

Compound | remaining activity at 1 µM [%]
O=C(CN1CC[C@@H]2CCC[C@@H]21)Nc1cccc(I)c1 [ZINC000426526480] | 92
O[C@@H](CN[C@@H](Cc1ccccc1F)c1ccccc1)CN1CCCC1 [ZINC000429522320] | 60.1
CCCN1C(=O)N(CC(C)(C)N2CCc3ccccc3C2)C(=O)[C@H]1CC [ZINC000430847713] | 67.3
O=C(C[C@@H]1CCCN1CCOc1cccc([N+](=O)[O-])c1)c1cccs1 [ZINC000430988927] | 7.5
CCc1ccc([C@@H]2CCN(Cc3cc(=O)n4c(C)cccc4n3)C2)cc1 [ZINC000433044150] | 5
CN(C(=O)CN1CCC(c2cnc[nH]2)CC1)C(c1ccccc1)c1ccccc1 [ZINC000435004139] | 99.6
CC(C)N1C[C@H](NC(=O)N[C@@H](C)c2ccc(Br)s2)[C@@H](C)C1 [ZINC000436303801] | 75.3
C[C@@H]1CCC[C@@H](NC(=O)CN2CCN(CC[C@@H]3CCOC3)CC2)C1 [ZINC000438095302] | 38.1
Cc1c(C(=O)NCC2CCCC2)cnc2c1c(=O)n(C)c(=O)n2C [ZINC000438905691] | 105
C[C@@H]1C[C@@H](c2ccccc2)CCN1Cc1nc(C2CC2)cs1 [ZINC000439311985] | 106
CO[C@H](C)CS(=O)(=O)N1CCN(C(=O)C(=O)N2CCCC2)CC1 [ZINC000442921898] | 111
CCO[C@@H]1C[C@](CO)(NC[C@H](O)COC2CCOCC2)C1(C)C [ZINC000444807044] | 120
O[C@@H](CN[C@@H](c1ccc(Br)cc1Cl)C1CC1)CN1CCCC1 [ZINC000446751851] | 20.8
CCC(CC)n1ccc(CN2CC=C(c3ccc(O)cc3)CC2)n1 [ZINC000448446275] | 38.7
C[C@@H]1CCC[C@H](NC(=O)CN2CCN(CCC3=CCCCC3)CC2)C1 [ZINC000450551910] | 16
CS[C@@H]1CCN(C[C@@H](O)COC(c2ccc(F)cc2)c2ccc(F)cc2)C1 [ZINC000451319844] | 63
O=C([C@@H]1C[C@H]1C(F)(F)F)N(CCN1CCCCCC1)C1CCC1 [ZINC000452023252] | 37.5
CC(C)N1CC[C@H](N(C)S(=O)(=O)C[C@H]2CCCCC2(F)F)C1 [ZINC000452100574] | 73.3
CC(C)N1CC[C@@H](N(C)S(=O)(=O)c2c(F)c(F)cc(F)c2F)C1 [ZINC000452107481] | 36.9
C[C@H](CCCc1cccnc1)N[C@@H](C)Cn1cccn1 [ZINC000453142034] | 24.9
C[C@@H](CC(N)=O)NC[C@H](CO)Cc1cc(Br)ccc1F [ZINC000453336584] | 100
COc1cccnc1CN[C@H](Cc1ccc(C)cc1)C1CC1 [ZINC000453351921] | 69.2
Cc1ccc(C[C@H](CO)NCc2cccc(F)c2)cc1C [ZINC000453607577] | 86.8
CN1CC[C@@H](CNC(=O)Nc2cc(F)ccc2Oc2ccccc2)C1 [ZINC000454705882] | 87.6
CCN(CC)[C@H]1CCN(CC(=O)N[C@@H](c2ccccc2)c2cccs2)C1 [ZINC000464767692] | 73.8
CCN(CC)[C@H]1CCN(C(=O)NCCCc2cccc(Cl)c2)C1 [ZINC000465804078] | 67.7

Compound | remaining activity at 1 µM [%]
C[C@@H]1CN(C2CC2)C[C@H]1NC(=O)N(Cc1cccc(Br)c1)C1CC1 [ZINC000466933503] | 84.3
CC(C)CO[C@H]1CCN([C@@H](C)C(=O)N(C)Cc2ccc(Br)cc2)C1 [ZINC000468894194] | 35.4
C[C@@H]1[C@H](Cc2ccccc2)CCN1Cc1cc(=O)n2cc(Cl)ccc2n1 [ZINC000472356611] | 45.9
COc1ccnc(N2CCN([C@H](C)CCSc3ccccc3)CC2)n1 [ZINC000473272986] | 66.5
C[C@H](NC[C@H](CO)Cc1c(F)cccc1Cl)c1ccco1 [ZINC000483826940] | 22.5
CCCCNC(=O)[C@H](C)N1CC[C@](C)(CNC(=O)OC(C)(C)C)C1 [ZINC000495656270] | 45.1
CN(C[C@H](O)CN[C@@H]1C[C@H]2CCCCN2C1=O)C(=O)OC(C)(C)C [ZINC000496403719] | 92.4
C[C@]1(c2ccccc2)CCCN(CC(=O)N2CCc3ccccc32)C1 [ZINC000500192494] | 69.3
C[C@@H]1CCN(CC(=O)N(C)[C@@H](C)c2ccc(F)c(F)c2)C[C@@H]1C [ZINC000501775665] | 20.4
COCCN1CCC(N[C@H]2COc3cc(F)c(Br)cc32)CC1 [ZINC000504552433] | 49.2
CC[C@H]1CN(Cc2ccc(-c3ccccc3)cc2F)C[C@H]1O [ZINC000507809396] | 14
Brc1ccccc1CNc1nccn1Cc1ccccc1 [ZINC000508455082] | 69.3
Cc1cccc(CNc2nccn2Cc2ccccc2)c1C [ZINC000508475661] | 38.6
C[C@H]1C[C@H](N2CCCC2)CN1CC(=O)N(Cc1ccccc1)c1ccccc1 [ZINC000512182007] | 31.6
Cc1ccccc1[C@@H]1CCN([C@H](C)C(=O)NCCc2ccccc2)C1 [ZINC000513818302] | 89.1
Cc1cccc(NC(=O)N(C)C[C@H]2CCCN2C)c1C(=O)N1CCCC1 [ZINC000516964180] | 99.3
NC(=O)[C@H](Cc1ccc(Cl)cc1)NCc1cc2ccccc2s1 [ZINC000517634594] | 98.7
Cc1ccccc1[C@H](OC[C@H](O)CN1Cc2ccccc2C1)c1ccccc1 [ZINC000518003593] | 79.8
Cc1ccnc2nc(C(=O)N3CCN(CCN4CCCC4)CC3)nn12 [ZINC000518759550] | 115
COc1cc(Cl)c(C)cc1NC(=O)[C@H](C)N(C)Cc1sccc1C [ZINC000520440291] | 102
O=C(Nc1cnc2ccccc2c1)[C@]1(O)CCN(Cc2ccccc2)C1 [ZINC000524392254] | 93.9
CC[C@@H]1CCC[C@H](NC(=O)[C@H](C)N2CCCCCC2)C1 [ZINC000525245955] | 93.6
Cc1cccc(C[C@H](CO)NCc2cnc(C3CCCCC3)s2)c1 [ZINC000526962900] | 60.7
C[C@@H](N[C@H]1Cc2ccccc2NC1=O)[C@@H]1C[C@H]1c1ccc(Cl)s1 [ZINC000528002641] | 84
O=C(NC[C@@H]1CNCCO1)N1CCN(S(=O)(=O)C2CC2)CC1 [ZINC000529344158] | 135
C[C@@H](C(=O)Nc1cccc(C2CCCCC2)c1)N1CCN(C)CC1 [ZINC000529649527] | 84.3

Compound | remaining activity at 1 µM [%]
CC1(C)[C@H](NC(=O)[C@]2(O)CCN(Cc3ccccc3)C2)[C@@H]2CCCO[C@@H]21 [ZINC000531059007] | 87.5
CC(=O)N1CCN(C(=O)C(=O)Nc2cnn(-c3ccccn3)c2)CC1 [ZINC000531495018] | 99.3
COC(=O)c1ccccc1NC(=O)CN1C[C@@H](c2ccccc2)C[C@@H]1C [ZINC000532978237] | 119
C[C@H](C(=O)Nc1ccc(F)cc1Cl)N1CC[C@H](N2CCCC2)C1 [ZINC000533411740] | 79.7
Cc1cc(NC(=O)[C@H](C)N2CCC[C@@H]([C@H](C)O)C2)ccc1Br [ZINC000534109220] | 70.4
CCc1cc(N2CCC[C@@H](N[C@H](C)c3ccc(OC)c(Cl)c3)C2)ncn1 [ZINC000536865847] | 36.3
CCCC1CCC(CN2CCN(CC(=O)N(CC)CC)CC2)CC1 (stereo not drawn) [ZINC000539406733] | 34
C[C@@H](C(=O)NCc1ccccc1Cl)N1CC[C@H](n2ncc3ccccc32)C1 [ZINC000542825037] | 107
COc1cccc2ncnc(N3CCN(CC4CCOCC4)CC3)c12 [ZINC000543048256] | 109
FC(F)(F)c1cccc([C@@]2(F)CCN(C[C@@H]3CCSC3)C2)c1 [ZINC000549824186] | 20
Cc1nc(CN2CC[C@H](CC3CC3)C2)nc2ccccc12 [ZINC000550423124] | 43.5
Cn1nccc1[C@@H]1CCC[C@@H](N[C@H]2CC3CCC2CC3)C1 [ZINC000550829396] | 19.6
CN1CCN(CCCCNC(=O)C(=O)N2CCSCC2)CC1 [ZINC000555574173] | 107
CC(C)OCCN1CCC(NC(=O)[C@@H]2CCc3nncn3C2)CC1 [ZINC000556484619] | 112
CN1CC[C@](O)(CN[C@@H](c2sccc2Br)C2CCCCC2)C1 [ZINC000556573026] | 16.7
CN1CCN(C(=O)C(=O)N2CCCN(C3CCCC3)CC2)CC1=O [ZINC000556797005] | 79.9
COCCN1CCC[C@@H]1CNC(=O)C(=O)N1CCC[C@@H](C(C)C)CC1 [ZINC000557493019] | 113
CC1CCC(CNC(=O)C(=O)NC2CCN([C@@H]3CCC[C@@H]3O)CC2)CC1 (stereo partly drawn) [ZINC000564110976] | 78.2
Cc1csc2nc(CN[C@H]3C[C@H](OCc4ccccc4)C3(C)C)cc(=O)n12 [ZINC000567338231] | 34.7
C[C@H](C(=O)NCc1ccc(Cl)cc1)N1CC[C@@H](c2cccnc2)C1 [ZINC000571080072] | 64
CCc1ccc([C@@H](C)N[C@@H]2CCCN(C(=O)CCC(F)(F)F)C2)s1 [ZINC000574285278] | 76.2
C[C@@H]1C[C@H](NC(=O)C(=O)N(C)Cc2c(Cl)cccc2Cl)CN1C1CC1 [ZINC000574318236] | 100
CCc1nc2cc(CN[C@@H](C)CC(=O)N3CCCCCC3)ccc2n1C1CC1 [ZINC000574654702] | 48.4
Cc1ccc2c(c1)[C@H](NC(=O)NC[C@@H]1CCN(C(C)C)C1)CCC2 [ZINC000575186982] | 22.9
C[C@H](NC1CC1)C(=O)NCc1ccc(C(=O)N=c2cc[nH]cc2)cc1 [ZINC000576277949] | 67.2
C[C@H](Cc1ccccc1Br)NCC1(O)CCC1 [ZINC000577603040] | 61.7
